Data reported in US11020457B2, “Compositions and methods for protecting the kidney from ischemia reperfusion injury” (University of Virginia Patent Foundation, priority 2013, dated 2021).
Entries after “also recorded” stand apart in the source; their conditions may differ.

Key:
Format in all cases: in vivo
[1] = system: C57BL/6 mice; assay: Renal IRI in WT mice: plasma creatinine, H&E histology, NGAL
Procedure: (§1) All experiments were performed in accordance with the National Institutes of Health and Institutional Animal Care and Use Guidelines. The Animal Care and Use Committee of the University of Virginia approved all procedures and protocols. C57BL/6 mice from the Jackson Laboratory and hepcidin knockout mice (HAMP−/−), a kind gift from Dr Cindy Roy (John Hopkins University) were used in this study. All experiments were performed on 8-10 weeks old male mice. Kidney ischemia-reperfusion surgery was performed as previously reported (44). The core temperature of the mice was maintained between 34° C. and 36° C. using a heating pad. After anesthetizing the mice (ketamine, 12 mg/ml; atropine, 0.48 mg/ml; xylazine, 24 mg/ml; […] mixture administered per 20 g body weight), bilateral flank incisions were made, both renal pedicles were exposed, and cross-clamped for 26 minutes (severe I/R injury) or 24 minutes (mild I/R injury). After the determined ischemia, clamps were removed, and kidneys were allowed to reperfuse for 24 hours. Ambient postoperative air temperature was maintained between 30° C. and 32° C. until mice had fully recovered. Sham-operated animals underwent bilateral flank incisions without clamping of renal pedicles. Twenty-four hours later, mice were euthanized, and tissues were harvested.
Animals were divided into three groups, injected intraperitoneally with water and underwent IRI (IRI), injected intraperitoneally with 50-100 μg hepcidin at different time points prior to IRI (Hepcidin-IRI) or were sham operated (Sham). The experimental design is depicted in FIG. 2a.
Renal function was determined by measurement of plasma creatinine, determined using a modified Jaffe colorimetric assay (44).
Kidneys were fixed in buffered formalin for 48 h, embedded in paraffin, sectioned (3-μm thickness), and stained with hematoxylin and eosin (H&E). The extent of acute tubular necrosis (ATN) following IRI was assessed using H&E stained kidney sections. An investigator blinded to the sample identities was used for these analyses to have an unbiased approach.
(§2) For RNA isolation, frozen tissues were re-suspended in RLT buffer (Qiagen Inc, Valencia, Calif.) and homogenized using TissueLyser system (Qiagen Inc, Valencia, Calif.). Total RNA from tissue homogenate was purified using RNAeasy mini kit (Qiagen Inc, Valencia, Calif.) following manufacturers instructions. 1 μg of RNA was used to synthesize cDNA using the iScript cDNA synthesis kit (Bio-Rad). The cDNA template was mixed with iTAQ SYBR green universal super mix (Bio-Rad) and quantitative PCR was carried out on CFX Connect system (Bio-Rad). Predesigned primers for Caspase-3 and Bcl-2 were purchased from Bio-rad. Glyceraldehyde-3-phosphate dehydrogenase (GAPDH) was amplified in parallel and used as the reference gene in quantification. Data is expressed as the relative gene expression and was calculated using the 2 (−ρρC(T)) method.

[2] = system: hepcidin knockout mice (HAMP−/−); assay: Mild renal IRI in HAMP-/- mice: kidney H-Ferritin and apoptosis (Caspase-3, Bcl-2, TUNEL); settings: for kidney Caspase-3 expression: HAMP-/- IRI Vs HAMP-/- Hepcidin-IRI, p<0.007, FIG. 7c; for TUNEL-positive cells in the kidney: hepcidin treated HAMP-/- IRI vs HAMP-/- IRI, FIG. 7g; for kidney H-Ferritin levels: hepcidin treated HAMP-/- IRI vs untreated p<0.05, lower than sham p<0.005, FIG. 7a-b
Procedure: as §1
Apoptotic cells in the kidney were detected by TUNEL assay following the manufacturer's protocol (Roche Diagnostics, Mannheim, Germany). Briefly, PLP-fixed kidney sections were immersed in 3% hydrogen peroxide-methanol (10 minutes) and permeabilized with cold 0.1% Triton-X100 and 0.1% […] (2 minutes). DNA fragments in apoptotic cells were then labeled and identified by terminal transferase dUTP conjugated to fluorescein (Roche Diagnostics) for 60 minutes at room temperature in dark. The apoptotic cells were imaged using a Zeiss Axiovert 200 microscope with Apo Tome (Zeiss).
Snap frozen tissue sections were homogenized in Tris-Triton tissue lysis buffer containing complete protease inhibitor cocktail using a Dounce Homogenizer. Membrane fractions were isolated from the whole kidney lysate using membrane isolation kit (Thermo Pierce) to determine ferroportin expression. H-Ferritin was measured in the whole kidney and spleen lysates. Protein content in the homogenate was estimated using the BCA protein estimation kit. Twenty to thirty microgram of protein per sample were loaded on a 10% NuPage Bis-Tris gel under reducing conditions. The resolved proteins were transferred onto a Nitrocellulose membrane (Licor Bioscience) and probed with goat anti-mouse H-Ferritin (Santa Cruz) and rabbit anti-mouse ferroportin (Novus Biologics) antibodies. The primary antibodies were detected with Donkey anti-goat Alexa 800 and goat anti-rabbit Alexa 800 antibodies (LiCor Bioscience). Mouse monoclonal GAPDH and β-Actin (Abcam) were used as the loading controls and detected using Donkey anti Mouse Alexa 680 antibody (LiCor Bioscience). Quantitation of data was performed using densitometry software (Licor Bioscience).
as §2
WT mice injected with hepcidin had higher levels of H-Ferritin and less apoptotic kidney injury. […]

[3] = system: hepcidin knockout mice (HAMP−/−); assay: Mild renal IRI in HAMP-/- mice: 4-HNE staining and immunofluorescence of neutrophils and CD11b cells; settings: for kidney 4-HNE immunoreactivity: hepcidin reconstituted HAMP-/- IRI, FIG. 8c; for kidney neutrophil and CD11b cell infiltration: hepcidin reconstitution in HAMP-/- IRI mice, FIGS. 8e and g
Procedure: as §1
Kidney sections were embedded in paraffin, 3 μm sectioned, and stained for 4 Hydroxynonenal (4-HNE) using standard protocols. Briefly sections were deparaffanized in xylenes, rehydrated in a series of ethanol rinses from 100% to 70% ethanol, then washed in distilled water. Sections were then incubated in 3% H2O2 in methanol for 20 minutes. After treating with Avidin and Biotin for 15 minutes each (Vector) the sections were blocked in blocking buffer containing 10% donkey serum in sodium phosphate buffer (NaPO4 buffer), at room temperature for 30 minutes. 4-HNE antibody was diluted in 1% BSA in NaPO4 buffer (Abcam; 1:1000) and added to sections overnight at 4° C. Sections were washed 3 times with NaPO4 buffer for 5 minutes each and incubated with biotinylated donkey anti-goat secondary antibody (Vector) for 1 hour. Sections were washed 3 times in NaPO4 buffer, and then incubated in ABC ready-to-use reagent (Vector Labs) for 30 minutes. After another 3 washes with NaPO4 buffer the sections exposed to diaminobenzidine (DAB) for 5 minutes followed by washing with in distilled water. The sections were counter-stained with 1% methylene blue solution, washed in water and dehydrated with xylene. Sections were imaged by using a Zeiss Axio Imager Z2/Apotome Microscope fitted with motorized focus drives and motorized XYZ microscope stage and integrated to a workstation running StereoInvestigator software, version 10.51 (MBF Bioscience, Williston, Vt.) […]

Substance: Mouse hepcidin 25 (DTNFPICIFCCKCCNNSQCGICCKT; listed as Mus musculus)
- plasma creatinine, comparison of doses ([1]; 50 versus 100 μg hepcidin, 24 hours before IRI): no significant differences in plasma creatinine
- kidney NGAL expression ([1]; IRI Vs Hepcidin-IRI, p<0.001): significantly lower expression of NGAL
- renal architecture / tubular necrosis (H&E) ([1]; hepcidin 50 μg 24 hours before IRI, FIG. 2e): fewer necrotic tubules and luminal debris
- plasma creatinine ([1]; hepcidin 50 μg injected 2 hours prior to IRI, p<0.001 vs untreated IRI): significantly reduced plasma creatinine levels
- plasma creatinine ([1]; hepcidin 50 μg injected 8 hours prior to IRI, p<0.001 vs untreated IRI): significantly reduced plasma creatinine levels
- plasma creatinine ([1]; single bolus of 50 or 100 μg hepcidin intraperitoneally, 24 hours before IRI, measured 24 hours after IRI, p<0.0001): significantly lowered plasma creatinine levels; also recorded: maximum protection
- kidney Bcl-2 expression ([2]; HAMP-/- Hepcidin-IRI Vs HAMP-/- IRI, p<0.005, FIG. 7d): prevented the decrease in Bcl-2 expression; also recorded: higher level of anti apoptotic Bcl2
- kidney Caspase-3 expression [2]: lower transcriptional activation of pro apoptotic Caspase3
- kidney Caspase-3 expression ([2]; listed as hepcidin): almost completely prevented
- TUNEL-positive cells in the kidney [2]: markedly reduced
- TUNEL-positive cells in the kidney ([2]; listed as hepcidin): significantly fewer TUNEL-positive cells
- kidney H-Ferritin levels [2]: significantly higher H ferritin levels
- kidney H-Ferritin levels ([2]; listed as hepcidin): significantly higher than in untreated
- kidney 4-HNE immunoreactivity [3]: little reactivity to 4 HNE
- kidney 4-HNE immunoreactivity ([3]; listed as hepcidin): far less immunoreactivity to 4-HNE
- kidney neutrophil and CD11b cell infiltration [3]: dramatically reduced
- kidney neutrophil and CD11b cell infiltration ([3]; listed as hepcidin): almost completely prevented kidney injury-associated neutrophil or CD11b cell infiltration
